Results reported in US4997950A, “Novel C-terminal gastrin antagonists” (priority 1989, dated 1991).
Entries after “also recorded” stand apart in the source; their conditions may differ. Where a name gives a salt, the structure may show the parent alone. Non-standard residues stand in square brackets, D forms with d. Residues, ends and D or L forms follow the SMILES beside them. *: point of attachment. Boc = CC(C)(C)OC(=O)*; βAla = NCCC(=O)O

Tests used:
[1] = system: acid secretion, isolated perfused rat stomach; test: acid output from the isolated, perfused rat stomach, with or without gastrin-17; design: species or system rat (Wistar)
Procedure: In brief, stomachs from fasted male Wistar rats (240-270 g) were completely isolated and placed in organ baths filled with Krebs-Ringer buffer. The vascular bed was perfused at a rate of 2 ml.min^-1 with Krebs-Ringer buffer containing 5 mM glucose, 5 mM pyruvate, 40 mg.ml^-1 bovine serum albumin and 10% (v/v) fresh, washed ovine erythrocytes gassed with 96% O2, 4% CO2 by a membrane oxygenator. The gastric lumen was perfused with distilled water (pH 7.0) gassed with O2 (100%). All perfusates and the organ bath were kept at 37° C. After an initial "wash-out" period of 20 minutes, isobutylmethylxanthine (50 μM) was added to the vascular perfusate. After a further 20 minutes, the peptide to be tested was added, giving a final peptide concentration of 10^-9, 10^-7 or 10^-5 M. Five other stomachs were given 520 pM gastrin which was known to produce maximal acid secretion. Furthermore, each peptide was given together with gastrin (520 pM) to evaluate the gastrin inhibitory properties of the peptide. The acid output was determined by titration of the lumenal perfusate to neutrality with dodium hydroxide (1 mM).

[2] = system: gastrin / pentagastrin-stimulated acid secretion; conditions: cited from earlier work
[3] = system: pentagastrin stimulated acid secretion, rat stomach; test: acid secretion from the ligated rat stomach; type: in vivo, rat (Sprague-Dawley); conditions: for ACID SECRETION: basal 26.7 ± 3.21
Procedure: In brief fasted male Sprague-Dawley rats (200-250 g) were anaesthetised by the intravenous administration of Sagital (0.1 mg/100 g body weight). The abdominal cavity of each rat was exposed and the stomach was ligated at the pyloric and cardiac sphincters. The test solution (200 μl), containing either saline, pentagastrin (1 μg) or the synthetic peptide in conjunction with pentagastrin (1 μg), was applied directly to the exposed stomach surface, and left for 80 minutes. The stomach was then removed and the contents were washed out with distilled water (15 ml). The washings were titrated to neutrality by the addition of sodium hydroxide (10 mM).

[4] = system: pentagastrin-stimulated acid secretion; test: inhibition of pentagastrin-stimulated acid secretion in dogs with gastric fistula and Heidenhain pouch; type: in vivo, dog (beagle); conditions: for order of decreasing antagonist activity: 20 pmol.kg^-1.h^-1; for effect on pentagastrin-stimulated acid secretion: 20 pmol.kg^-1.h^-1, gastric fistula and Heidenhain pouch; for ACID INHIBITION / percentage inhibition of acid: analogue 20 pmol.kg^-1.h^-1, period 110-170 minutes
Procedure: (§1) In brief, six beagle dogs were surgically prepared with Heidenhain pouches and gastric fistula. The dogs were fasted for 18 hours before the experiment. […] Collections of gastric secretions were recovered at 10 minute intervals. Each dog received an intravenous infusion throughout the experiment consisting of 150 mM NaCl and 8 mM KCl at 2 ml.min^-1. Secretory stimulants and the synthetic peptides were added to this infusion at appropriate rates. The stimulants of gastric secretion used were pentagastrin and histamine phosphate. Pentagastrin (0.5 μg.Kg^-1.h^-1) was given for 1 hour and then the synthetic peptide was added to the infusion and continued for another hour at a dose of 20 pmol.kg^-1 h^-1. The procedure was identical for histamine except that the dose of histamine was […]. The ten minute samples were titrated to pH 7.0 by the addition of sodium hydroxide (1 mM) and the acid secretion was expressed as μmol H^+ per 10 minutes.
The analogues depicted in Table 6.5 were tested as gastrin antagonists using dogs surgically prepared with gastric fistulae and Heidenhain pouches. The acid secretion was measured at 10 minute intervals during the administration of pentagastrin and each of the analogues.

[5] = system: pepsin secretion; test: inhibition of pepsin secretion in dogs with gastric fistula and Heidenhain pouch; type: in vivo, dog (beagle); conditions: for effect on pepsin secretion: gastric fistula
Procedure: as §1

SMILES: CSCCC(NC(=O)C(Cc1c[nH]c2ccccc12)NC(=O)CNC(=O)C(Cc1ccc(O)cc1)NC(=O)C(C)NC(=O)C(CCC(=O)O)NC(=O)C(CCC(=O)O)NC(=O)C(CCC(=O)O)NC(=O)[C@H](CCC(=O)O)NC(=O)[C@H](CCC(=O)O)NC(=O)[C@H](CC(C)C)NC(=O)[C@H](Cc1c[nH]c2ccccc12)NC(=O)[C@@H]1CCCN1C(=O)CNC(=O)[C@@H](N)CCC(=O)O)C(=O)NC(CC(=O)O)C(=O)NC(Cc1ccccc1)C(N)=O (stereo in doubt) [GASTRIN]
- Acid output ([1]; gastrin 520 pM alone, basal 8.7): 58.7 μmol H^+ /60 min

SMILES: CC(C)C[C@H](NC(=O)[C@H](Cc1c[nH]c2ccccc12)NC(=O)OC(C)(C)C)C(=O)N[C@@H](CC(=O)O)C(N)=O [N-tBOC-Trp-Leu-Asp-NH2] (Boc-Trp-Leu-Asp-NH2)
- antagonist activity [2]: shortest sequence still retaining antagonist activity
- concentration at which antagonist properties are exhibited [2]: 100 µM
- reduction of acid secretion ([2]; joint infusion of peptide (40 μg/kg) and pentagastrin (0.5 μg/kg)): 50%

SMILES: CSCC[C@H](NC(=O)[C@H](Cc1c[nH]c2ccccc12)NC(=O)CCNC(=O)OC(C)(C)C)C(=O)N[C@@H](CC(=O)O)C(=O)N[C@@H](Cc1ccccc1)C(N)=O [PENTAGASTRIN, reference compound]
- ACID SECRETION ([3]; pentagastrin 13 nmol/kg alone): 60.6 ± 8.63 μmol/80 min

SMILES: CC(C)C[C@H](NC(=O)[C@H](Cc1c[nH]c2ccccc12)NC(=O)OC(C)(C)C)C(=O)NCCC(=O)O [Peptide I, t-Butyloxycarbonyl-L-Tryptophyl-L-Leucyl-β-Alanine] (Boc-Trp-Leu-[βAla]-OH)
- ACID SECRETION ([3]; peptide 8.2 nmol/kg + pentagastrin 13 nmol/kg): 22.7 ± 7.27 μmol/80 min
- effect on acid secretion, ligated stomach ([3]; peptide I 8.2 nmol.Kg^-1 with pentagastrin, peptide XXII 80 or 4 pmol.Kg^-1): potent antagonist of pentagastrin stimulated acid secretion; also recorded: reduced to a value similar to the basal level
- ACID SECRETION ([3]; peptide alone 8.2 nmol/kg): 28.6 ± 4.21 μmol/80 min
- order of decreasing antagonist activity [4]: I>III>XIV>XV>II
- effect on pentagastrin-stimulated acid secretion ([4]; listed as Boc-Trp-Leu-β-Ala): retaining potent antagonistic properties
- effect on pentagastrin-stimulated acid secretion ([4]; listed as Boc-Trp-leu-β-Ala): most potent antagonist of the series
- ACID INHIBITION ([4]; GF (gastric fistula)): 617.58 mmol H^+ /kg
- percentage inhibition of acid ([4]; GF (gastric fistula)): 60%
- ACID INHIBITION ([4]; HP (Heidenhain pouch)): 35.70 mmol H^+ /kg
- percentage inhibition of acid ([4]; HP (Heidenhain pouch)): 55.8%
- Inhibition of Pepsin Secretion ([5]; GF (gastric fistula)): 67.3 Units/kg
- percentage inhibition of pepsin secretion ([5]; GF (gastric fistula)): 59.2%
- Inhibition of Pepsin Secretion ([5]; HP (Heidenhain pouch)): 1.65 Units/kg
- effect on pepsin secretion [5]: significant decrease in pepsin secretion from the gastric fistula

SMILES: CC(C)C[C@H](NC(=O)CCc1ccccc1)C(=O)NCCC(=O)O [Peptide II, Phenyl-3-Propionyl-Leucyl-β-Alanine]
- order of decreasing antagonist activity [4]: I>III>XIV>XV>II
- effect on pentagastrin-stimulated acid secretion [4]: gastrin antagonists although they are less potent than the parent peptide
- ACID INHIBITION ([4]; GF (gastric fistula)): 562.22 mmol H^+ /kg
- percentage inhibition of acid ([4]; GF (gastric fistula)): 54.7%
- ACID INHIBITION ([4]; HP (Heidenhain pouch)): 32.59 mmol H^+ /kg
- percentage inhibition of acid ([4]; HP (Heidenhain pouch)): 50.92%

SMILES: CC(C)C[C@H](NC(=O)CCc1c[nH]c2ccccc12)C(=O)NCCC(=O)O [Peptide III, Indole-3-Propionyl-L-Leucyl-β-Alanine]
- order of decreasing antagonist activity [4]: I>III>XIV>XV>II
- effect on pentagastrin-stimulated acid secretion [4]: gastrin antagonists although they are less potent than the parent peptide
- ACID INHIBITION ([4]; GF (gastric fistula)): 125.51 mmol H^+ /kg
- percentage inhibition of acid ([4]; GF (gastric fistula)): 12.2%
- Inhibition of Pepsin Secretion ([5]; GF (gastric fistula)): 71.1 Units/kg
- percentage inhibition of pepsin secretion ([5]; GF (gastric fistula)): 62.5%
- Inhibition of Pepsin Secretion ([5]; HP (Heidenhain pouch)): 5.78 Units/kg
- effect on pepsin secretion [5]: significant decrease in pepsin secretion from the gastric fistula

SMILES: CC(C)C[C@H](NC(=O)CCc1c[nH]c2ccccc12)C(=O)N[C@@H](CC(=O)O)C(=O)NCCc1ccccc1 [Peptide V, Indole-3-Propionyl-L-Leucyl-L-Aspartyl-Phenethylamide]
- ACID INHIBITION ([4]; GF (gastric fistula)): 303.25 mmol H^+ /kg
- percentage inhibition of acid ([4]; GF (gastric fistula)): 29.5%
- ACID INHIBITION ([4]; HP (Heidenhain pouch)): 11.00 mmol H^+ /kg
- percentage inhibition of acid ([4]; HP (Heidenhain pouch)): 17.2%
- Inhibition of Pepsin Secretion ([5]; GF (gastric fistula)): -3.1 Units/kg
- percentage inhibition of pepsin secretion ([5]; GF (gastric fistula)): 0%
- Inhibition of Pepsin Secretion ([5]; HP (Heidenhain pouch)): 2.04 Units/kg

SMILES: CC(C)C[C@@H](C(=O)NCCC(=O)O)N(C)C(=O)CCc1ccccc1 [Peptide XIV, Phenyl-3-propionyl-N-methyl-L-Leucyl-β-Alanine]
- order of decreasing antagonist activity [4]: I>III>XIV>XV>II
- effect on pentagastrin-stimulated acid secretion [4]: antagonists with significant activity
- ACID INHIBITION ([4]; GF (gastric fistula)): 256.77 mmol H^+ /kg
- percentage inhibition of acid ([4]; GF (gastric fistula)): 25%

SMILES: CC(C)C[C@H](NC(=O)CCc1ccccc1)C(=O)N(C)CCC(=O)O [Peptide XV, Phenyl-3-propionyl-L-Leucyl-N-Methyl-β-Alanine]
- order of decreasing antagonist activity [4]: I>III>XIV>XV>II
- effect on pentagastrin-stimulated acid secretion [4]: antagonists with significant activity
- ACID INHIBITION ([4]; GF (gastric fistula)): 185.32 mmol H^+ /kg
- percentage inhibition of acid ([4]; GF (gastric fistula)): 18%

SMILES: CC(C)C[C@H](NC(=O)[C@@H](N)Cc1c[nH]c2ccccc12)C(=O)CN[C@@H](CC(=O)O)C(=O)N[C@@H](Cc1ccccc1)C(N)=O [Peptide XXI, L-Tryptophyl-L-Leucyl-.psi.(COCH2 NH)-L-Aspartyl-L-Phenylalanyl amide dihydrochloride]
- effect on acid secretion, isolated perfused stomach ([1]; 10^-9 to 10^-5 M, absence or presence of gastrin-17 520 pM, dihydrochloride): At low concentrations it inhibits basal acid secretion; also recorded: when administered at 10^-5 M or in conjunction with gastrin-17, it acts as a weak agonist; also recorded: partial agonist
- Acid output ([1]; peptide 10^-5 M + G-17 (520 pM), gastrin alone 58.7): 68.5 μmol H^+ /60 min
- Acid output ([1]; peptide 10^-5 M, basal 8.7): 22.4 μmol H^+ /60 min
- Acid output ([1]; peptide 10^-7 M, basal 8.7): 1.6 μmol H^+ /60 min
- Acid output ([1]; peptide 10^-9 M, basal 8.7): 2.2 μmol H^+ /60 min

SMILES: CC(C)C[C@H](NC(=O)[C@H](Cc1c[nH]c2ccccc12)NC(=O)CN1CC[C@H](NC(=O)[C@H](C)NC(=O)OC(C)(C)C)C1=O)C(=O)N[C@@H](CC(=O)O)C(=O)N[C@@H](Cc1ccccc1)C(N)=O [Peptide XXII, t-Butyloxycarbonyl-L-Alanyl-amino-2-oxo-1-pyrrolidineacetyl-L-Tryptophyl-L-Leucyl-L-Aspartyl-L-Phenylalanyl amide]
- increase of affinity for the gastrin receptor as compared to pentagastrin ([3]; deduced from γ-lactam peptide acid secretion): approximately 120 fold
